The values below come from article PMC3822589 (Journal of Cellular and Molecular Medicine, 2013).

The test system of assay [1] is P-STAT5 in UKE-1 cells (Jak2V617F). Briefly: Western blot of phospho-STAT5 in UKE-1 cells. It is filed as cell-based. The following applies: 2.5 μM, 3 hrs. A general note: In western blotting, separated proteins are transferred to a membrane and probed.
Assay [2] deals with Jak2V617F in HEK-V617F-STAT-Rep. cells. The assay is described as follows: pSTAT-ZsGreen reporter gene assay. It is filed as cell-based.
The test system of assay [3] is Jak2V617F in γ2A-FRT-TI-Jak2V617F/STAT3-YFP cells. The assay is described as follows: STAT3-YFP translocation assay. It is filed as cell-based.
Assay [4] deals with γ2A-FRT-TI-Jak2V617F/STAT3-YFP cells. Briefly: Nuclei size by confocal imaging and Cell Profiler. The following applies: 24 hrs; Cell Profiler. It is filed as cell-based.
The target of the next assay is Jak2 (Homo sapiens, UniProt O60674). The assay is described as follows: Jak2 in vitro kinase assay. It is filed as biochemical. The following applies: Caliper versus literature (Figure S5B).
In assay [5] the test system is Phospho-STAT5 (P-STAT5) levels in HEL cells (Jak2V617F). Briefly: Western blot of phospho-STAT5 in HEL cells. It is filed as cell-based, human. The following applies: for effect on phosphorylation of STAT5 (Western blot): 0.5, 1 or 5 μM, 3 hrs.
The test system of assay [6] is HEL cells. Briefly: Cell proliferation assay. The following applies: for effect on proliferation of HEL cells: 0.3 or 1 μM, 72 hrs; for IC50: Homo sapiens, HEL, 72 h, read-out: IC50 values, Proliferation assay. The class given is cell-based, human.
Assay [7] deals with P-STAT5 in BA/F3-EpoR-Jak2V617F cells. Briefly: Western blot of phospho-STAT5 in BA/F3-EpoR-Jak2V617F cells. The class given is cell-based, murine. The following applies: 2.5 μM, 3 hrs.
The test system of assay [8] is Jak2V617F phosphorylation (P-Jak2) in HEL cells. Briefly: Western blot of phospho-Jak2 in HEL cells. The class given is cell-based, human. The following applies: 0.5, 1 or 5 μM, 3 hrs.
The test system of assay [9] is phosphorylation of histone H3 (target of Aurora kinase B) in HEL cells. The assay is described as follows: Quantitative Western blot of phospho-histone H3 in HEL cells. The following applies: HEL cells blocked with Nocodazole; 0.25, 0.5 or 1 μM; 3 hrs. It is filed as cell-based, human.
In assay [10] the test system is HEL cells. Briefly: Cell cycle analysis. It is filed as cell-based, human. The conditions noted are these: 500 nM CEP701, VX680, TG101209 or 100 nM AT9283.
Assay [11] relates to phosphorylation of histone H3 in BA/F3-EpoR-Jak2V617F cells. The assay is described as follows: Quantitative Western blot of phospho-histone H3 in BA/F3-EpoR-Jak2V617F cells. The conditions noted are these: BA/F3-EpoR-Jak2V617F cells blocked with Nocodazole; 0.25, 0.5 or 1 μM; 3 hrs. The class given is cell-based, murine.
Assay [12] deals with HEL cells. Briefly: Cell size determination. The class given is cell-based, human. The following applies: 600 nM CEP701, TG101209, VX680 or 100 nM AT9283; 24, 48 or 72 hrs.
Assay [13] has as its system 2C4, HCT-116 and K-562 cells. The assay is described as follows: Nuclei size in cell lines not expressing Jak2V617F. The class given is cell-based. The following applies: 500 nM; 48 hrs.
The test system of assay [14] is phosphorylation of histone H3 in UKE-1 cells. Briefly: Quantitative Western blot of phospho-histone H3 in UKE-1 cells. The conditions noted are these: UKE-1 cells blocked with Nocodazole; 0.25, 0.5 or 1 μM; 3 hrs. The class given is cell-based.
In assay [15] the test system is CD34+ cells of Jak2V617F-positive MPN patients. Briefly: Colony forming cell. The following applies: single inhibitor; 12–16 days of culture. The class given is cell-based, human.

Read-outs that look alike come from different tables or passages of the source.

Chain of Jak2 (O60674 whole entry): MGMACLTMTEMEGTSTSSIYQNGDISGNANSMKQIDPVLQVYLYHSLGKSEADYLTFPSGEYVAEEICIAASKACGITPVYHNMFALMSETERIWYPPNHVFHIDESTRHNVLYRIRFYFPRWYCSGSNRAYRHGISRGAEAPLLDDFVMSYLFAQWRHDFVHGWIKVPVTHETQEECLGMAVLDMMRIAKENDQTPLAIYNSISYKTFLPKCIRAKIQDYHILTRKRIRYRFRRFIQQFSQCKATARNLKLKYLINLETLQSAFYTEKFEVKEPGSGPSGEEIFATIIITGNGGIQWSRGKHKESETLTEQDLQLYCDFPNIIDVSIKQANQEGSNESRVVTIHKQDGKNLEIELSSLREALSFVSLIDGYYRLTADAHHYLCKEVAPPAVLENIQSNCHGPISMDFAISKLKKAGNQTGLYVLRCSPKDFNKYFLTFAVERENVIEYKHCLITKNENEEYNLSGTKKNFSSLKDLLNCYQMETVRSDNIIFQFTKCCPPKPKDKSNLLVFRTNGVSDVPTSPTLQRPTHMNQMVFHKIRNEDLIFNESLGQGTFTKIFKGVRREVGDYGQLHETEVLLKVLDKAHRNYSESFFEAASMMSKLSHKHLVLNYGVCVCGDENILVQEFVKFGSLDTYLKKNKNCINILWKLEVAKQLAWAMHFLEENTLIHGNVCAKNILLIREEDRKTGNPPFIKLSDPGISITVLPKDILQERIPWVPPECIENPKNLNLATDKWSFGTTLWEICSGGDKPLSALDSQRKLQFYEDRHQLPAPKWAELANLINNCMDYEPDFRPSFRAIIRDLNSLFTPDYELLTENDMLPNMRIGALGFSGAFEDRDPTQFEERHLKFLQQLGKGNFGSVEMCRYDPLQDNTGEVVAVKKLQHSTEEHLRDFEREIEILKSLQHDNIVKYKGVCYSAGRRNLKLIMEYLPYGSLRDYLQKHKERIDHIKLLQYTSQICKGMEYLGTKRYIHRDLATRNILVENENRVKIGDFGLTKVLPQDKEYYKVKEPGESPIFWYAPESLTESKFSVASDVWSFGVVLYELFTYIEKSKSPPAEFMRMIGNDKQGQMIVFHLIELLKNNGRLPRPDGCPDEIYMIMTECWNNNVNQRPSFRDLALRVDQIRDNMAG

In the case of `N#CCNC(=O)c1ccc(-c2ccnc(Nc3ccc(N4CCOCC4)cc3)n2)cc1` [CYT387], the “effect on phosphorylation of STAT5 (Western blot)” value is on record as “efficiently decreased” in assay [1], “showed the same effects but were less efficient” in assay [5] (HEL cells) and “efficiently decreased” in assay [7]. The IC50 in [2] (24 h, read-out: IC50 values, STAT-reporter gene assay) is 794 ± 7 nM; in [3] (read-out: IC50 values, STAT3-YFP translocation assay), 459 ± 126 nM; in assay [5] (Homo sapiens, HEL, read-out: IC50 values, WB (P-STAT5), HEL cells, mean ± SD), about 600 nM; in assay [5] (read-out: IC50 values, WB (P-STAT5), HEL cells, mean ± SD), 633 ± 90 nM; with HEL cells [6], 1180 ± 413 nM. The “concentration at which nuclei size increases” value in assay [4] is on record as “did not have this effect”. For the same compound, on Jak2, the “divergence between own and published in vitro kinase assay IC50” value was “greater than 10 fold”. For the same compound, in the assay on HEL cells [6], the “effect on proliferation of HEL cells” value is recorded as “showed the same effects but were less efficient”. Moreover, the “effect on phosphorylation of Jak2” value in assay [8] was “increased phosphorylation of Jak2”.
`Cc1cc(Nc2cc(N3CCN(C)CC3)nc(Sc3ccc(NC(=O)C4CC4)cc3)n2)[nH]n1` [VX680]: the figures for the “effect on phosphorylation of STAT5 (Western blot)” value in assay [1], in assay [5] (HEL cells) and in [7] were “did not inhibit STAT5 phosphorylation”, “did not inhibit the phosphorylation of STAT5” and “did not inhibit STAT5 phosphorylation”, respectively. Also, the “IC50 values, STAT-reporter gene assay” value in assay [2] (HEK-V617F-STAT-Rep. cells, 24 hrs, mean ± SD) is “No inhibition”. The entries for the “effect on histone H3 phosphorylation” value in assay [9], in assay [11] and in assay [14] were “Reduction in histone H3 phosphorylation”, “decline of histone H3 phosphorylation” and “decline of histone H3 phosphorylation”, respectively. The “IC50 values, STAT3-YFP translocation assay” value in assay [3] (γ2A-FRT-TI-Jak2V617F/STAT3-YFP cells, mean ± SD) was “No inhibition”. The “effect on cell cycle profile” value in the assay on HEL cells [10] is reported as “emergence of an 8n peak”. Besides, the “IC50 values, WB (P-STAT5)” value in assay [5] (HEL cells, mean ± SD) is on record as “No inhibition”. Besides, the “effect on proliferation of HEL cells” value with HEL cells [6] is “very efficiently inhibited HEL cell growth”. Besides, the IC50 in the assay with HEL cells [6] is 158 ± 26 nM. The “effect on HEL cell size” value in the assay with HEL cells [12] is “increased in size”. In assay [13], the “increase in nuclei size in cell lines not expressing Jak2V617F” value is given as “this effect was also clearly visible”. In assay [8], the “effect on phosphorylation of Jak2” value is “not observed”. Moreover, the “effect on erythroid and myeloid colony growth” value in assay [15] was “reduced the numbers of myeloid colonies very efficiently but had less effect on erythroid colonies”.
